Data taken from ChEMBL document CHEMBL5579826, “Discovery of autophagy-tethering compounds as potent NLRP3 degraders for IBD Immunotherapy” (Eur J Med Chem, 2024).
Activity calls are given as the source filed them. The calls are words filed in the database; no cut-off is given here.

What was measured:
[1] = target: Interleukin-1 beta (Homo sapiens) (UniProt P01584); assay: Inhibition of IL-1beta in PMA-differentiated human THP-1 cells at 100 nM co-incubated with compound and LPS for 24 hrs by ELISA relative to control; format: cell-based
[2] = target: Interleukin-1 beta (Homo sapiens) (UniProt P01584); assay: Inhibition of IL-1beta in PMA-differentiated human THP-1 cells at 200 nM co-incubated with compound and LPS for 24 hrs by ELISA relative to control; format: cell-based
Mus musculus [3] = assay: Anti-inflammatory activity in DSS-induced colitis C57BL/6 mouse model assessed as reduction in NLRP3 level in colon tissue at 5 to 20 mg/kg, ip administered daily for 10 days by IHC analysis; format: functional, organism-based; details: dose 5-20 mg/kg, time 10.0 day
THP-1 [4] = assay: Cytotoxicity against PMA-differentiated human THP-1 cells assessed as reduction in cell viability at 50 to 5000 nM incubated for 24 hrs by MTT assay; format: toxicity, cell-based; details: thp-1, 24 h, 5 µM, dose 50-5000 nM
Mus musculus [5] = assay: Anti-inflammatory activity in DSS-induced colitis C57BL/6 mouse model harboring NLRP3 KO assessed as reduction in loss of intestinal crypts in colon tissue at 20 mg/kg, ip administered daily for 10 days by H and E staining based analysis; format: functional, organism-based; details: time 10.0 day
Mus musculus [6] = assay: Anti-inflammatory activity in DSS-induced colitis C57BL/6 mouse model assessed as reduction in IL-1beta level in colon tissue at 5 to 20 mg/kg, ip administered daily for 10 days by IHC analysis; format: functional, organism-based; details: dose 5-20 mg/kg, time 10.0 day
Mus musculus [7] = assay: Anti-inflammatory activity in DSS-induced colitis C57BL/6 mouse model assessed as reduction in loss of intestinal crypts in colon tissue at 5 to 20 mg/kg, ip administered daily for 10 days by H and E staining based analysis; format: functional, organism-based; details: dose 5-20 mg/kg, time 10.0 day
[8] = Half life in C57BL/6J mouse at 5 mg/kg, ip measured for 24 hrs by LC-MS/MS analysis; format: ADME, organism-based; details: in vivo
Mus musculus [9] = assay: Anti-inflammatory activity in DSS-induced colitis C57BL/6 mouse model assessed as suppression of disease activity index administered intraperitoneally daily for 10 days; format: functional, organism-based; details: dose 5-20 mg/kg, route ip, time 10.0 day
[10] = Volume of distribution at steady state in C57BL/6J mouse at 5 mg/kg, iv measured for 24 hrs by LC-MS/MS analysis; format: ADME, organism-based; details: in vivo, read-out: Vdss
[11] = Half life in C57BL/6J mouse at 5 mg/kg, iv measured for 24 hrs by LC-MS/MS analysis; format: ADME, organism-based; details: in vivo
Mus musculus [12] = assay: Anti-inflammatory activity in DSS-induced colitis C57BL/6 mouse model harboring NLRP3 KO assessed as reduction in intestinal mucosal damage in colon tissue at 20 mg/kg, ip administered daily for 10 days by H and E staining based analysis; format: functional, organism-based; details: time 10.0 day
Mus musculus [13] = assay: Anti-inflammatory activity in DSS-induced colitis C57BL/6 mouse model assessed as reduction in weight loss at 5 to 20 mg/kg, ip administered daily for 10 days; format: functional, organism-based; details: dose 5-20 mg/kg, time 10.0 day
[14] = AUC (0 to t) in C57BL/6J mouse at 5 mg/kg, iv measured for 24 hrs by LC-MS/MS analysis; format: ADME, organism-based; details: in vivo
Mus musculus [15] = assay: Anti-inflammatory activity in DSS-induced colitis C57BL/6 mouse model assessed as reduction in colon tissue shortening at 5 to 20 mg/kg, ip administered daily for 10 days; format: functional, organism-based; details: dose 5-20 mg/kg, time 10.0 day
Mus musculus [16] = assay: Anti-inflammatory activity in DSS-induced colitis C57BL/6 mouse model harboring NLRP3 KO assessed as reduction in colon length shortening at 20 mg/kg, ip administered daily for 10 days; format: functional, organism-based; details: time 10.0 day
THP-1 [17] = assay: Effect on NLRP3 mRNA expression in PMA-differentiated human THP-1 cells co-incubated with compound and LPS for 24 hrs by qRT-PCR analysis; format: functional, cell-based
Mus musculus [18] = assay: Anti-inflammatory activity in DSS-induced colitis C57BL/6 mouse model harboring NLRP3 KO assessed as reduction in inflammatory cell infiltration in colon tissue at 20 mg/kg, ip administered daily for 10 days by H and E staining based analysis; format: functional, organism-based; details: time 10.0 day
[19] = Clearance in C57BL/6J mouse at 5 mg/kg, iv measured for 24 hrs by LC-MS/MS analysis; format: ADME, organism-based; details: in vivo
[20] = AUC (0 to infinity) in C57BL/6J mouse at 5 mg/kg, iv measured for 24 hrs by LC-MS/MS analysis; format: ADME, organism-based; details: in vivo
Mus musculus [21] = assay: Anti-inflammatory activity in DSS-induced colitis C57BL/6 mouse model assessed as reduction in intestinal mucosal damage in colon tissue at 5 to 20 mg/kg, ip administered daily for 10 days by H and E staining based analysis; format: functional, organism-based; details: dose 5-20 mg/kg, time 10.0 day
Mus musculus [22] = assay: Anti-inflammatory activity in DSS-induced colitis C57BL/6 mouse model harboring NLRP3 KO assessed as reduction in IL-1beta level at 20 mg/kg, ip administered daily for 10 days […]; format: functional, organism-based; details: time 10.0 day
[23] = Cmax in C57BL/6J mouse at 5 mg/kg, ip measured for 24 hrs by LC-MS/MS analysis; format: ADME, organism-based; details: in vivo
[24] = AUC (0 to t) in C57BL/6J mouse at 5 mg/kg, ip measured for 24 hrs by LC-MS/MS analysis; format: ADME, organism-based; details: in vivo
[25] = AUC (0 to infinity) in C57BL/6J mouse at 5 mg/kg, ip measured for 24 hrs by LC-MS/MS analysis; format: ADME, organism-based; details: in vivo
[26] = Apparent volume of distribution in C57BL/6J mouse at 5 mg/kg, iv measured for 24 hrs by LC-MS/MS analysis; format: ADME, organism-based; details: in vivo, read-out: Vz
[27] = Oral bioavailability in C57BL/6J mouse at 5 mg/kg measured for 24 hrs by LC-MS/MS analysis; format: ADME, organism-based; details: in vivo
Mus musculus [28] = assay: Anti-inflammatory activity in DSS-induced colitis C57BL/6 mouse model assessed as reduction in inflammatory cell infiltration in colon tissue at 5 to 20 mg/kg, ip administered daily for 10 days by H and E staining based analysis; format: functional, organism-based; details: dose 5-20 mg/kg, time 10.0 day

Chain of Interleukin-1 beta (Homo sapiens) (P01584 117-269 limits assumed): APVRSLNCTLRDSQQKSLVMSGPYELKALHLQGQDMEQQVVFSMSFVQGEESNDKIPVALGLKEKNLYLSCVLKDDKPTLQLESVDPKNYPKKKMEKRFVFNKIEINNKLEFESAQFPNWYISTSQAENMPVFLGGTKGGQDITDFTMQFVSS

Structure (SMILES): O=C(Nc1c2c(cc3c1CCC3)CCC2)NS(=O)(=O)c1ccc(OCCCCN2C(=O)/C(=C/c3cc(Br)c(O)c(Br)c3)c3cc(I)ccc32)cc1
- inhibition [1]: 43.1%
- inhibition [2]: 48.5%

Structure (SMILES): COc1cc(/C=C2/C(=O)N(CCCCCCCCOc3ccc(S(=O)(=O)NC(=O)Nc4c5c(cc6c4CCC6)CCC5)cc3)c3ccc(Br)cc32)cc(Br)c1O
- inhibition [1]: 27.7%
- inhibition [2]: 19.2%

Structure (SMILES): O=C(Nc1c2c(cc3c1CCC3)CCC2)NS(=O)(=O)c1ccc(OCCOCCOCCOCCN2C(=O)/C(=C/c3cc(Br)c(O)c(Br)c3)c3cc(I)ccc32)cc1
- Activity (Mus musculus [3]): Active
- Activity (THP-1 [4]): Non-Toxic
- inhibition [1]: 45.8%
- Activity (Mus musculus [5]): inactive
- Activity (Mus musculus [6]): Active
- Activity (Mus musculus [7]): Active
- half-life [8]: 1.26 h
- Activity (Mus musculus [9]): Dose-Dependent Effect
- Vd [10]: 0.39 L/kg
- half-life [11]: 0.94 h
- Activity (Mus musculus [12]): inactive
- Activity (Mus musculus [13]): Active
- AUC(0-t) at 24 h [14]: 2960 ng·h/mL
- Activity (Mus musculus [15]): Active
- Activity (Mus musculus [16]): inactive
- Activity (THP-1 [17]): inactive
- Activity (Mus musculus [18]): inactive
- clearance [19]: 28.4 mL/min/kg
- inhibition [2]: 73.6%
- AUC(0-inf) [20]: 2970 ng·h/mL
- Activity (Mus musculus [21]): Active
- Activity (Mus musculus [22]): inactive
- Cmax [23]: 555 ng/mL
- AUC(0-t) at 24 h [24]: 551 ng·h/mL
- AUC(0-inf) [25]: 562 ng·h/mL
- Vd [26]: 2.31 L/kg
- bioavailability [27]: 19%
- Activity (Mus musculus [28]): Active

Structure (SMILES): O=C(Nc1c2c(cc3c1CCC3)CCC2)NS(=O)(=O)c1ccc(OCCOCCN2C(=O)/C(=C/c3cc(Br)c(O)c(Br)c3)c3cc(I)ccc32)cc1
- inhibition [1]: 70.4%
- inhibition [2]: 98.2%

Structure (SMILES): COc1cc(/C=C2/C(=O)N(CCOCCOc3ccc(S(=O)(=O)NC(=O)Nc4c5c(cc6c4CCC6)CCC5)cc3)c3ccc(Br)cc32)cc(Br)c1O
- inhibition [1]: 35.6%
- inhibition [2]: 59.2%

Structure (SMILES): O=C(Nc1c2c(cc3c1CCC3)CCC2)NS(=O)(=O)c1ccc(OCCCCCCCCCCCCN2C(=O)/C(=C/c3cc(Br)c(O)c(Br)c3)c3cc(Br)ccc32)cc1
- inhibition [1]: 14.8%
- inhibition [2]: 19.5%

Structure (SMILES): COc1ccc(Cl)cc1C(=O)NCCc1ccc(S(=O)(=O)NCCOCCN2C(=O)/C(=C/c3cc(Br)c(O)c(OC)c3)c3cc(Br)ccc32)cc1
- inhibition [1]: 39%
- inhibition [2]: 23.1%

Structure (SMILES): COc1ccc(Cl)cc1C(=O)NCCc1ccc(S(=O)(=O)NCCOCCOCCOCCN2C(=O)/C(=C/c3cc(Br)c(O)c(OC)c3)c3cc(Br)ccc32)cc1
- inhibition [1]: 8.2%
- inhibition [2]: -4.9%

Structure (SMILES): COc1ccc(Cl)cc1C(=O)NCCc1ccc(S(=O)(=O)NCCCCCN2C(=O)/C(=C/c3cc(Br)c(O)c(OC)c3)c3cc(Br)ccc32)cc1
- inhibition [1]: 50.4%
- inhibition [2]: 36.2%

Structure (SMILES): O=C(Nc1c2c(cc3c1CCC3)CCC2)NS(=O)(=O)c1ccc(OCCOCCOCCN2C(=O)/C(=C/c3cc(Br)c(O)c(Br)c3)c3cc(Br)ccc32)cc1
- inhibition [1]: 17.8%
- inhibition [2]: 45.2%

Structure (SMILES): COc1cc(/C=C2/C(=O)N(CCCCOc3ccc(S(=O)(=O)NC(=O)Nc4c5c(cc6c4CCC6)CCC5)cc3)c3ccc(Br)cc32)cc(Br)c1O
- inhibition [1]: 19.2%
- inhibition [2]: 40.8%

Structure (SMILES): COc1cc(/C=C2/C(=O)N(CCOCCOCCOCCOc3ccc(S(=O)(=O)NC(=O)Nc4c5c(cc6c4CCC6)CCC5)cc3)c3ccc(Br)cc32)cc(Br)c1O
- inhibition [1]: 57.6%
- inhibition [2]: 32.7%

Structure (SMILES): O=C(Nc1c2c(cc3c1CCC3)CCC2)NS(=O)(=O)c1ccc(OCCOCCN2C(=O)/C(=C/c3cc(Br)c(O)c(Br)c3)c3cc(Br)ccc32)cc1
- inhibition [1]: 20.5%
- inhibition [2]: 67.3%

Structure (SMILES): O=C(Nc1c2c(cc3c1CCC3)CCC2)NS(=O)(=O)c1ccc(OCCOCCOCCN2C(=O)/C(=C/c3cc(Br)c(O)c(Br)c3)c3cc(I)ccc32)cc1
- inhibition [1]: 50.5%
- inhibition [2]: 41.7%

Structure (SMILES): COc1ccc(Cl)cc1C(=O)NCCc1ccc(S(=O)(=O)NCCCCCCCCN2C(=O)/C(=C/c3cc(Br)c(O)c(OC)c3)c3cc(Br)ccc32)cc1
- inhibition [1]: -7.2%
- inhibition [2]: 37.9%

Structure (SMILES): O=C(Nc1c2c(cc3c1CCC3)CCC2)NS(=O)(=O)c1ccc(OCCCCCCCCN2C(=O)/C(=C/c3cc(Br)c(O)c(Br)c3)c3cc(Br)ccc32)cc1
- inhibition [1]: -5.3%
- inhibition [2]: 39.6%

Structure (SMILES): O=C(Nc1c2c(cc3c1CCC3)CCC2)NS(=O)(=O)c1ccc(OCCCCCCCCN2C(=O)/C(=C/c3cc(Br)c(O)c(Br)c3)c3cc(I)ccc32)cc1
- inhibition [1]: 41.9%
- inhibition [2]: 26.5%

Structure (SMILES): O=C(Nc1c2c(cc3c1CCC3)CCC2)NS(=O)(=O)c1ccc(OCCCCCCCCCCCCN2C(=O)/C(=C/c3cc(Br)c(O)c(Br)c3)c3cc(I)ccc32)cc1
- inhibition [1]: 40.1%
- inhibition [2]: 7.9%

Structure (SMILES): COc1ccc(Cl)cc1C(=O)NCCc1ccc(S(=O)(=O)NCCCCCCCCCCN2C(=O)/C(=C/c3cc(Br)c(O)c(OC)c3)c3cc(Br)ccc32)cc1
- inhibition [1]: 7.3%
- inhibition [2]: 28%

Structure (SMILES): O=C(Nc1c2c(cc3c1CCC3)CCC2)NS(=O)(=O)c1ccc(OCCOCCOCCOCCN2C(=O)/C(=C/c3cc(Br)c(O)c(Br)c3)c3cc(Br)ccc32)cc1
- inhibition [1]: 6.7%
- inhibition [2]: 66.6%

Structure (SMILES): COc1cc(/C=C2/C(=O)N(CCOCCOCCOc3ccc(S(=O)(=O)NC(=O)Nc4c5c(cc6c4CCC6)CCC5)cc3)c3ccc(Br)cc32)cc(Br)c1O
- inhibition [1]: 16.5%
- inhibition [2]: 39.1%

Structure (SMILES): COc1ccc(Cl)cc1C(=O)NCCc1ccc(S(=O)(=O)NCCOCCOCCN2C(=O)/C(=C/c3cc(Br)c(O)c(OC)c3)c3cc(Br)ccc32)cc1
- inhibition [1]: 11%
- inhibition [2]: 43.1%

Structure (SMILES): COc1cc(/C=C2/C(=O)N(CCCCCCCCCCCCOc3ccc(S(=O)(=O)NC(=O)Nc4c5c(cc6c4CCC6)CCC5)cc3)c3ccc(Br)cc32)cc(Br)c1O
- inhibition [1]: 20.4%
- inhibition [2]: 35.3%

Structure (SMILES): O=C(Nc1c2c(cc3c1CCC3)CCC2)NS(=O)(=O)c1ccc(OCCCCN2C(=O)/C(=C/c3cc(Br)c(O)c(Br)c3)c3cc(Br)ccc32)cc1
- inhibition [1]: 42.8%
- inhibition [2]: 49.2%
